# Test system: CCRF-CEM
# Experiment: Inhibition against […]-T-Cell leukemic cell line
# Format: functional, cell-based
# Conditions: Homo sapiens
row,SMILES,IC50 [µg/mL]
1,CCC(=O)CC1CN(C=O)CCc2c([nH]c3ccccc23)[C@@](C(=O)OC)(c2cc3c(cc2OC)N(C)C2C4(C(=O)OC)OC5C=CN6CCC32C6[C@]5(CC)C4OC(C)=O)C1 (stereo not given in full),14
2,CCC(=O)C[C@@H]1CN(C=O)CCc2c([nH]c3ccccc23)[C@@](C(=O)OC)(c2cc3c(cc2OC)N(C)[C@H]2[C@@](O)(C(=O)OC)[C@H](OC(C)=O)[C@]4(CC)C=CCN5CC[C@]32[C@@H]54)C1,7.7
3,CC[C@]12CN3CCc4c([nH]c5ccccc45)[C@@](C(=O)OC)(c4cc5c(cc4OC)N(C)[C@H]4[C@@](O)(C(=O)OC)[C@H](OC(C)=O)[C@]6(CC)C=CCN7CC[C@]54[C@@H]76)C[C@@H](C3)[C@H]1O2.CC[C@]12CN3CCc4c([nH]c5ccccc45)[C@@](C(=O)OC)(c4cc5c(cc4OC)N(C)[C@H]4[C@@](O)(C(=O)OC)[C@H](OC(C)=O)[C@]6(CC)C=CCN7CC[C@]54[C@@H]76)C[C@@H](C3)[C@H]1O2.O=S(=O)(O)O [VINLEUROSINE SULFATE],0.4

# Second part, the compound after the results:
row,IC50 [µg/mL],SMILES
1,0.025,CC[C@]1(O)C[C@H]2CN(CCc3c([nH]c4ccccc34)[C@@](C(=O)OC)(c3cc4c(cc3OC)N(C=O)[C@H]3[C@@](O)(C(=O)OC)[C@H](OC(C)=O)[C@]5(CC)C=CCN6CC[C@]43[C@@H]65)C2)C1 [VINCRISTINE]
2,0.1,CC[C@]1(O)C[C@@H]2CN(CCc3c([nH]c4ccccc34)[C@@](C(=O)OC)(c3cc4c(cc3OC)N(C)[C@H]3[C@@](O)(C(=O)OC)[C@H](OC(C)=O)[C@]5(CC)C=CCN6CC[C@]43[C@@H]65)C2)C1 [VINBLASTINE]
